Reference: ChEMBL document CHEMBL1152743, “Design and synthesis of 1,2-annulated adamantane piperidines with anti-influenza virus activity” (Bioorg Med Chem, 2009)
Activity calls are given as the source filed them. The calls are words filed in the database; no cut-off is given here.

Columns and labels:
[1] = test system: Influenza B virus; test: Antiviral activity against influenza B virus; type: functional, organism-based
[2] = Cytotoxicity against MDCK cells assessed as changes in cell morphology after 72 hrs […]; type: cell-based, Canis lupus familiaris; settings: dog
[3] = Selectivity index, ratio of MCC for MDCK cells to EC50 for influenza A virus H3N2; type: toxicity, cell-based; settings: dog
[4] = test system: Influenza A virus; test: microbe, parasite or virus in culture; settings: H3N2, 72 h
Description: (§1) Antiviral activity against influenza A virus H3N2 assessed as inhibition of virus-induced cytopathic effect after 72 hrs by MTS assay

[5] = test system: Influenza A virus; type: functional, organism-based; settings: H3N2, 500 uM
[6] = test system: Influenza A virus
Description: as §1

SMILES: CN1CC2C3CC4CC(C3)CC2(C4)C1 (stereo not given)
- Activity [1]: inactive
- MCC at 72 h [2]: 83 µM
- selectivity ratio [3]: 35
- EC50 [4]: 2400 nM

SMILES: CN1CCC2C3CC4CC(C3)CC2(C4)C1 (stereo not given)
- Activity [1]: inactive
- Activity [5]: inactive

SMILES: C1C2CC3CC1CC1(CNCC31)C2 (stereo not given)
- Activity [1]: inactive
- MCC at 72 h [2]: 94 µM
- selectivity ratio [3]: 200
- EC50 [4]: 500 nM

SMILES: C1CC23CC4CC(CC(C4)C2CN1)C3 (stereo not given)
- Activity [1]: inactive
- Activity [5]: inactive

SMILES: NC12CC3CC(CC(C3)C1)C2 [AMANTADINE]
- Activity [1]: inactive
- MCC at 72 h [2]: > 500 µM
- selectivity ratio [3]: > 250
- EC50 [4]: 2000 nM

SMILES: CN1CCC23CC4CC(CC(C4)C12)C3 (stereo not given)
- Activity [1]: inactive
- MCC at 72 h [2]: 83 µM
- selectivity ratio [3]: 11
- EC50 [4]: 7700 nM

SMILES: C1CNC2C3CC4CC(C3)CC2(C1)C4 (stereo not given)
- Activity [1]: inactive
- MCC at 72 h [2]: 439 µM
- selectivity ratio [3]: 106
- EC50 [4]: 4100 nM

SMILES: C1CC2C3CC4CC(C3)CC2(CN1)C4 (stereo not given)
- Activity [1]: inactive
- MCC at 72 h [2]: 439 µM
- selectivity ratio [3]: > 732
- EC50 [4]: 600 nM

SMILES: CC(N)C12CC3CC(CC(C3)C1)C2 (stereo not given) [RIMANTADINE]
- Activity [1]: inactive
- MCC at 72 h [2]: > 500 µM
- EC50 [4]: 360 nM

SMILES: NC(=O)c1ncn([C@@H]2O[C@H](CO)[C@@H](O)[C@H]2O)n1 [RIBAVIRIN]
- Activity [1]: inactive
- MCC at 72 h [2]: 20 µM
- EC50 [6]: 8700 nM

SMILES: CN1CCCC23CC4CC(CC(C4)C12)C3 (stereo not given)
- Activity [1]: inactive
- MCC at 72 h [2]: 83 µM
- selectivity ratio [3]: 19
- EC50 [4]: 4400 nM

SMILES: CN1CCC23CC4CC(CC(C4)C2C1)C3 (stereo not given)
- Activity [1]: inactive
- Activity [5]: inactive

SMILES: C1CC23CC4CC(CC(C4)C2N1)C3 (stereo not given)
- Activity [1]: inactive
- MCC at 72 h [2]: 468 µM
- selectivity ratio [3]: 217
- EC50 [4]: 2200 nM

SMILES: CCN1CCC23CC4CC(CC(C4)C2C1)C3 (stereo not given)
- Activity [1]: inactive
- Activity [5]: inactive

SMILES: CCN1CCC23CC4CC(CC(C4)C12)C3 (stereo not given)
- Activity [1]: inactive
- MCC at 72 h [2]: 439 µM
- selectivity ratio [3]: 128
- EC50 [4]: 3400 nM
